# Source: US20040022861A1, “Process for production of nanoparticles and microparticles by spray freezing into liquid” (priority 2001, published 2004)
# Legend:
# [1] = Particle size distribution of dry powders (time-of-flight); type: physicochemical
# Protocol: (§1) An aliquot of 0.1 g bovine insulin was dissolved in 20 ml HCl (pH=2), the solution was then titrated by 0.1 N NaOH to pH 7.4. The feed solution was then atomized using an ISCO pump by spray freezing into liquid nitrogen. The nozzle used was polyetheretherketone tubing with a diameter of 63.5 μm. The flow rate was 14 ml/min at 4000 psi. The frozen particles were collected and dried in a tray lyophilizer.
# The span index is used to described the polydispersity in a given particle size distribution and is defined as (D90-D10)/D50, where D10, D50, and D90 are the respective particle size at 10, 50, 90 percent cumulative percent undersize.
# Dissolution study = type: physicochemical
# From the text: “FeSSIF” means fed state simulated intestinal fluid prepared by a recipe known in the art. This media is used to simulate gastrointestinal conditions. FeSSIF is the dissolution media that the powders produced in the following examples are dispersed into to quantitate the amount of drug dissolved as a function of time.
# (§2) Ethyl acetate/water or dichloromethane/water mixtures were used to produce o/w emulsions for SFL micronization, and a tetrahydrofuran/water mixture was used to formulate the feed solutions. Micronized SFL powders were characterized by x-ray diffraction, surface area, scanning and transmission electron microscopy, contact angle and dissolution (SLS 0.75%/Tris 1.21% media).
# [2] = BET specific surface area; type: physicochemical
# From the text: The microparticles obtained were discrete and compact with almost spherical shape. […] The protein/polymer ratio has a strong effect on the entrapment efficiency and loading degree of the incorporated protein. The entrapment efficiency was high for all investigated biodegradable polymers. High polymer concentration yielded high entrapment efficiency for all observed biodegradable polymers and is illustrated at FIG. 6. Scanning Electron Micrographs (SEM) were taken of microparticles prepared by the following conditions: […] An adsorption isotherm derived by S. Brunaure, P. H. Emmett, and E.
# [3] = Contact angle against dissolution media (SLS/Tris); type: physicochemical
# From the text: as §2
# [4] = cited from earlier work
# [5] = Chemical stability of insulin: A-21 desamido insulin level (RP-HPLC); type: physicochemical; conditions: for percentage of A-21 desamido in the samples: stored at −4° C.
# Protocol: as §1, with “lyophilizer. The resulting particles were highly porous. […] The SFL process decreased the level of covalent insulin dimer (Table 3). The mean particle size diameter as determined by time-of-flight measurement was 5.06 microns. SEM photographs reveal that the particle is an aggregate composed of small domains of insulin.” for “lyophilizer.”
# (§3) The SFL insulin powder was prepared according to the procedure outlined in Example 1 with same formulation. The SFL insulin powder was stored at −4° C. The samples were taken out at 6, 12 and 24 weeks.
# (§4) The products were characterized by different techniques. […] The median aerodynamic particle size was 5.06 μm.
# [6] = Insulin aggregation: covalent insulin dimer (size exclusion HPLC); type: physicochemical; conditions: for percentage of covalent insulin dimer in the samples: stored at −4° C.
# Protocol: as §1, with “lyophilizer. The resulting particles were highly porous. […] The SFL process decreased the level of covalent insulin dimer (Table 3). The mean particle size diameter as determined by time-of-flight measurement was 5.06 microns. SEM photographs reveal that the particle is an aggregate composed of small domains of insulin.” for “lyophilizer.”
# as §3, §4
compound,measurement,setting,value
C#C[C@]1(O)CC[C@H]2[C@@H]3CCC4=Cc5oncc5C[C@]4(C)[C@H]3CC[C@@]21C [Danazol],M 10(μm),"[1]; dry powders, Table 14",7.28 μm
same,M 90(μm),"[1]; dry powders, Table 14",51.78 μm
same,M 50(μm),"[1]; dry powders, Table 14 and text Example 30",23.10 μm
same,danazol dissolved,"Dissolution study; FeSSIF media, 60 minutes",21%
same,danazol dissolved,"Dissolution study; SLS 0.75%/Tris 1.21% media, 5 minutes",Approximately 53%
same,danazol dissolved,"Dissolution study; SLS 0.75%/Tris 1.21% media, 60 minutes",about 88%
same,BET specific surface area,"[2]; Examples 4, 5, 8",0.52 m2/g
same,Specific Surface Area (m^2/g),[2]; Table 14 and text Example 30,0.52 m^2/g
same,Average Contact Angle (S.D.),[3]; listed as Bulk Danazol,64.3 (1.1)^2 °
same,Average Contact Angle (S.D.),[3]; listed as bulk micronized danazol,64.3 °
"NC(=O)N1c2ccccc2C=Cc2ccccc21 [CBZ, carbamazepine]",Span Index,[1]; (D90-D10)/D50,2.94
same,D10 (μm),"[1]; time-of-flight, Table 10",15.56 μm
same,D50 (μm),"[1]; time-of-flight, Table 10",39.70 μm
same,D90 (μm),"[1]; time-of-flight, Table 10",132.33 μm
same,mean particle diameter,"[1]; time-of-flight, text Example 8",39.70 μm
same,CBZ dissolved in water,"Dissolution study; water, within 10 minutes",about 4%
same,aqueous solubility,[4],61 µg/mL
bovine insulin [Bulk insulin],A-21 desamido insulin (percent),[5]; Table 3,3.03%
same,percentage of A-21 desamido in the samples,[5]; 12 weeks,2.61 percentage
same,percentage of A-21 desamido in the samples,[5]; 24 weeks,2.72 percentage
same,percentage of A-21 desamido in the samples,[5]; Initial,2.46 percentage
same,Covalent Insulin Dimer (percent),[6]; Table 3,0.25%
same,percentage of covalent insulin dimer in the samples,[6]; 12 weeks,1.18 percentage
same,percentage of covalent insulin dimer in the samples,[6]; 24 weeks,1.15 percentage
same,percentage of covalent insulin dimer in the samples,[6]; Initial,0.5 percentage
same,Mean Particle Size (μm),[1]; Table 3,14.24 μm
